From patent publication US10196385B2, “Tetrahydropyranyl benzamide derivatives” (Eli Lilly and Company, priority 2015, dated 2019) come the findings set out here.

Experiment [1] deals with human GPR142 (Homo sapiens (Human), UniProt Q7Z601). Briefly: GPR142 Agonist Effect as Measured by IP-1 Assay. Format: cell-based. As to conditions: HEK293 cells expressing human GPR142, Mean ± SEM; for Efficacy: IP-1 assay; for EC50: IP-One HTRF, read-out: hGPR142 IP1 EC50. Here is the method:
GPR142 Agonist Effect as Measured by IP-1 Assay
The purpose of this assay is to detect GPR142 agonist effect.
HEK293 cells expressing human GPR142 are maintained in DMEM supplemented with 10% FBS and 800 μg/ml G418 (Geneticin®) at 37° C. and 5% CO2. The cells are plated in 384 well plates at 5000 cells per well and allowed 18 hours for attachment. After addition of compounds at varying concentrations ranging from 30 μM to 1 nM, cells are incubated for 1 hr. IP-1 measurements are performed using an IP-One HTRF® assay kit (Cisbio) according to manufacturer's protocol using assay buffer containing 1×HBSS (+Ca, +Mg), 0.1% BSA, 50 mM LiCl and 20 mM HEPES, pH 7.2. The reaction is stopped by addition of IP1-d2 (IP-1 coupled to an organic HTRF acceptor) followed by cryptate solution (http://www.htrf.com/usa/htrf-chemistry). The plates are incubated at 25° C. for 1 hr. Fluorescence is read in an Envision instrument at 665 nm and 620 nm wavelength. The ratio of 665 nm/620 nm is calculated and converted to IP-1 levels using an IP-1 standard curve. The data is fit to a 4 parameter-fit logistics to determine EC50 values.

The target in experiment [2] is GPR142 (Mus musculus (Mouse), UniProt Q7TQN9). As to the kind of experiment: Intraperitoneal Glucose Tolerance Tests (IPGTT). Format: in vivo. As to conditions: male C57BL/6 mice; for ED50 / ED80: oral dosing 30 minutes prior to i.p. glucose challenge (2 g/kg), glucose AUC lowering; for considered positive in the assay (reduction in glucose AUC, P<0.05): oral dosing, IPGTT. Here is the method: Intraperitoneal Glucose Tolerance Tests (IPGTT)
IPGTT assay is used to examine the ability of exemplified compounds to activate GPR142 in vivo resulting in anti-diabetic efficacy, i.e. reduction in plasma glucose levels. Male C57BL/6 mice (8-10 weeks of age) are fed normal rodent chow diet and water ad libitum. On the night before the study, animals are fasted overnight in clean cages. On the morning of the study, animals are dosed orally with vehicle or compound at the indicated doses 30 minutes prior to the glucose challenge (2 g/kg) by intraperitoneal injection. Blood glucose levels are determined from tail bleeds taken immediately prior to compound dosing (−30 min) and 0, 15, 30, and 60 min after glucose challenge using handheld glucometers. Plasma is isolated from tail bleeds taken at 7 min after glucose challenge and used to determine insulin levels by the Rat/Mouse Insulin Elisa kit (Millipore) or MA6000 Mouse/Rat Insulin Kit (MSD). The blood glucose profile from t=0 to t=60 min is used to calculate an area under the curve (AUC) for each treatment. Percent lowering in glucose AUC is calculated for each treatment group with respect to the AUC of vehicle group. A compound with a reduction in glucose AUC (P<0.05) is considered positive in the assay.

Chain of GPR142 (Q7TQN9 whole entry): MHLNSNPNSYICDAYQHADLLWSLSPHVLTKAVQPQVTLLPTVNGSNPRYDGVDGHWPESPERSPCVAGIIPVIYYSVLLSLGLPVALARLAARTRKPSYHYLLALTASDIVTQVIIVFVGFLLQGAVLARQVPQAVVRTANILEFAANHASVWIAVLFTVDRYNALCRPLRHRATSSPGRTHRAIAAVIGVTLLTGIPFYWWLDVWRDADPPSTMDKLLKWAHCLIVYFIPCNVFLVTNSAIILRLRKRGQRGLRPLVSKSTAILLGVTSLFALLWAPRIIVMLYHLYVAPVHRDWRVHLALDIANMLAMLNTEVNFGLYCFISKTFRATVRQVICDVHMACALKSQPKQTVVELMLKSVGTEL
Chain of human GPR142 (Q7Z601 whole entry): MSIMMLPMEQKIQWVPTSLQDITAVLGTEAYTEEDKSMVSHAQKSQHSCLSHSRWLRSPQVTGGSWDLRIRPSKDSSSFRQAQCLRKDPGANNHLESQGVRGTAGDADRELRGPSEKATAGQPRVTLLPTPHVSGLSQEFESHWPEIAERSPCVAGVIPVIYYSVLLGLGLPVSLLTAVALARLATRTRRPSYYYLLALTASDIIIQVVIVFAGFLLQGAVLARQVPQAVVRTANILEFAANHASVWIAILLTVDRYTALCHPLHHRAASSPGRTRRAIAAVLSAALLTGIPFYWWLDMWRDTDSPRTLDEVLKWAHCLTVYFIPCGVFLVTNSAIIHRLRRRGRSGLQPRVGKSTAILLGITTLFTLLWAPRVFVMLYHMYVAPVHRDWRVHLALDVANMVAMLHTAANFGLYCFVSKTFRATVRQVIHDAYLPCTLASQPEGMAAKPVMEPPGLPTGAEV

Regarding `Cc1ncn(C)c1-c1nnc([C@@H]2C[C@H](N(C)C(=O)c3cccc(Cl)c3)CCO2)[nH]1` (single isomer, unassigned; isomer 1) [Example 3, Cis-(chiral)-3-Chloro-N-[2-[5-(1,4-dimethyl-1H-imidazol-5-yl)-4H-1,2,4-triazol-3-yl]tetrahydro-2H-pyran-4-yl]-N-methyl-benzamide, Isomer 1], in experiment [1], the Efficacy is 112 ± 3, n = 7% and the EC50 turned out to be 27.2 ± 4.8 nM.

For `Cc1ncn(C)c1-c1nnc([C@@H]2C[C@H](N(C)C(=O)c3cccc(C(F)(F)F)c3)CCO2)[nH]1` (single isomer, unassigned; isomer 1) [Example 1, Cis-(chiral)-N-[(2-[5-(1,4-Dimethyl-1H-imidazol-5-yl)-4H-1,2,4-triazol-3-yl]tetrahydro-2H-pyran-4-yl]-N-methyl-3-(trifluoromethyl)benzamide, Isomer 1], in experiment [1], the Efficacy is given as 109 ± 3, n = 12% and the EC50 stood at 43.5 ± 7.9 nM. In experiment [2], the ED50 turned out to be 0.30 mpk; the ED80 is listed as 1.6 mpk; the “considered positive in the assay (reduction in glucose AUC, P<0.05)” value was “positive”.

For `Cc1ncn(C)c1-c1nnc([C@@H]2C[C@H](N(C)C(=O)c3cccc(OC(F)(F)F)c3)CCO2)[nH]1` (single isomer, unassigned; isomer 1) [Example 2, Cis-(chiral)-N-[2-[5-(1,4-Dimethyl-1H-imidazol-5-yl)-4H-1,2,4-triazol-3-yl]tetrahydro-2H-pyran-4-yl]-N-methyl-3-(trifluoromethoxy)benzamide, Isomer 1], in experiment [1], the Efficacy was 110 ± 2, n = 11% and the EC50 came out at 30.1 ± 4.2 nM. Moreover, in experiment [2], the ED50 is given as 0.24 mpk; the ED80 worked out at 1.6 mpk; the “considered positive in the assay (reduction in glucose AUC, P<0.05)” value is “positive”.
